From DBAASP
≈ marks a conversion by molar mass, not a printed value. Each block holds one compound with its values, some of them ahead of it.

What was measured:
Assay in all cases: ≥ marks a high value that may be exact or a test limit, other limits are often not marked, values filed in µg/mL are converted to µM
[1] = system: Escherichia coli ATCC 11775
[2] = system: Staphylococcus aureus ATCC 12600
[3] = system: Candida albicans NCYC 1467
[4] = system: Escherichia coli NCTC 10418
[5] = system: Staphylococcus aureus NCTC 10788
[6] = system: Escherichia coli ATCC 25922
[7] = system: Klebsiella pneumoniae ATCC 700603
[8] = system: Pseudomonas aeruginosa ATCC 27853
[9] = system: Staphylococcus aureus ATCC 29213
[10] = system: Staphylococcus aureus ATCC 33591
[11] = system: Staphylococcus aureus ATCC 700699
[12] = system: Staphylococcus aureus ATCC BAA-1556
[13] = system: Escherichia coli BW25113
[14] = system: Enterococcus faecalis ATCC 29212
[15] = system: Salmonella enterica subsp. enterica serovar Pullorum C79-13
[16] = system: Salmonella enterica subsp. enterica serovar Typhimurium C77-31
[17] = system: Staphylococcus epidermidis ATCC 12228

SMILES: CC(C)C[C@H](NC(=O)[C@H](C)NC(=O)[C@H](CC(C)C)NC(=O)[C@@H]1CCCN1C(=O)[C@H](Cc1ccccc1)NC(=O)[C@@H](N)Cc1ccccc1)C(=O)N[C@@H](CC(C)C)C(=O)N[C@H]1CSSC[C@@H](C(=O)O)NC(=O)[C@H](CCCCN)NC(=O)[C@H](CCCCN)NC(=O)[C@H](Cc2ccccc2)NC(=O)[C@H](C(C)C)NC(=O)[C@H](CCCCN)NC1=O [FFPLALLCKVFKKC]
MIC [1]: 25 µM (≈ 41.4 µg/mL)
MIC [2]: ≥ 100 µM

SMILES: CC[C@H](C)[C@H](NC(=O)[C@H](Cc1c[nH]c2ccccc12)NC(=O)[C@H](CCCN=C(N)N)NC(=O)[C@H](CCCN=C(N)N)NC(=O)[C@H](CC(C)C)NC(=O)[C@@H](N)CCCCN)C(=O)N[C@@H](CCCN=C(N)N)C(=O)N[C@@H](Cc1c[nH]c2ccccc12)C(=O)N[C@@H](CC(C)C)C(N)=O [KLRRWIRWL]
MIC [12]: 25 µM (≈ 33.1 µg/mL)

SMILES: CC[C@H](C)[C@H](NC(=O)[C@H](Cc1c[nH]c2ccccc12)NC(=O)[C@H](CCCN=C(N)N)NC(=O)[C@H](CCCN=C(N)N)NC(=O)[C@H](Cc1c[nH]c2ccccc12)NC(=O)[C@@H](N)CCCCN)C(=O)N[C@@H](CCCN=C(N)N)C(N)=O [KWRRWIR]
MIC [12]: ≥ 100 µM

SMILES: CC(C)C[C@H](NC(=O)[C@H](CC(C)C)NC(=O)[C@H](CC(C)C)NC(=O)[C@H](CC(C)C)NC(=O)[C@H](CC(C)C)NC(=O)[C@H](CCCCN)NC(=O)[C@H](CC(C)C)NC(=O)[C@@H](N)CC(C)C)C(=O)N[C@@H](CCCCN)C(N)=O [LLKLLLLLK]
MIC [12]: ≥ 100 µM

SMILES: CC(C)C[C@H](NC(=O)[C@H](CC(C)C)NC(=O)[C@H](CC(C)C)NC(=O)[C@H](CC(C)C)NC(=O)[C@H](CC(C)C)NC(=O)[C@H](CC(C)C)NC(=O)[C@H](CCCCN)NC(=O)[C@H](CC(C)C)NC(=O)[C@@H](N)CC(C)C)C(N)=O [LLKLLLLLL]
MIC [12]: ≥ 100 µM

SMILES: CC[C@H](C)[C@H](NC(=O)[C@@H]1CCCN1C(=O)[C@H](CCCN=C(N)N)NC(=O)[C@H](CCCN=C(N)N)NC(=O)[C@H](Cc1ccccc1)NC(=O)[C@@H](N)CCCN=C(N)N)C(=O)N[C@@H](CCCN=C(N)N)C(=O)N[C@@H](CCCN=C(N)N)C(=O)N[C@@H](CCCN=C(N)N)C(=O)N1CCC[C@H]1C(=O)N[C@H](C(=O)N[C@@H](CCCN=C(N)N)C(=O)N1CCC[C@H]1C(=O)N1CCC[C@H]1C(=O)N[C@@H](Cc1ccccc1)C(=O)N[C@@H](Cc1c[nH]c2ccccc12)C(=O)N[C@@H](CCCN=C(N)N)C(=O)O)[C@@H](C)CC [RFRRPIRRRPIRPPFWR]
MIC [13]: 8 µM (≈ 18.9 µg/mL)

SMILES: NCCCC[C@H](NC(=O)[C@H](Cc1c[nH]c2ccccc12)NC(=O)[C@H](Cc1c[nH]c2ccccc12)NC(=O)[C@H](CCCCN)NC(=O)[C@@H](N)CCCN=C(N)N)C(N)=O [RKWWK]
MIC [6]: > 77.8 µM
MIC [2]: ≥ 77.8 µM

SMILES: CC[C@H](C)[C@H](NC(=O)[C@@H]1CCCN1C(=O)[C@H](CCCN=C(N)N)NC(=O)[C@H](CCCN=C(N)N)NC(=O)[C@H](Cc1c[nH]c2ccccc12)NC(=O)[C@@H](N)CCCN=C(N)N)C(=O)N[C@@H](CCCN=C(N)N)C(=O)N[C@@H](CCCN=C(N)N)C(=O)N[C@@H](CCCN=C(N)N)C(=O)N1CCC[C@H]1C(=O)N[C@H](C(=O)N[C@@H](CCCN=C(N)N)C(=O)N1CCC[C@H]1C(=O)N1CCC[C@H]1C(=O)N[C@@H](Cc1ccccc1)C(=O)N[C@@H](Cc1ccc(O)cc1)C(=O)N1CCC[C@H]1C(=O)O)[C@@H](C)CC [RWRRPIRRRPIRPPFYP]
MIC [13]: 8 µM (≈ 18.6 µg/mL)

SMILES: CC[C@H](C)[C@H](NC(=O)[C@@H]1CCCN1C(=O)[C@H](Cc1c[nH]c2ccccc12)NC(=O)[C@H](CCCN=C(N)N)NC(=O)[C@H](Cc1c[nH]c2ccccc12)NC(=O)[C@@H](N)CCCN=C(N)N)C(=O)N[C@@H](CCCN=C(N)N)C(=O)N[C@@H](CCCN=C(N)N)C(=O)N[C@@H](CCCN=C(N)N)C(=O)N1CCC[C@H]1C(=O)N[C@H](C(=O)N[C@@H](CCCN=C(N)N)C(=O)N1CCC[C@H]1C(=O)N1CCC[C@H]1C(=O)N[C@@H](Cc1c[nH]c2ccccc12)C(=O)N[C@@H](Cc1ccc(O)cc1)C(=O)N[C@@H](CCCN=C(N)N)C(=O)O)[C@@H](C)CC [RWRWPIRRRPIRPPWYR]
MIC [13]: 4 µM (≈ 9.79 µg/mL)

SMILES: CC(C)C[C@H](NC(=O)[C@H](Cc1c[nH]c2ccccc12)NC(=O)[C@H](Cc1c[nH]c2ccccc12)NC(=O)[C@H](CC(C)C)NC(=O)[C@H](Cc1c[nH]c2ccccc12)NC(=O)[C@@H](N)Cc1c[nH]c2ccccc12)C(=O)N[C@@H](CCCN=C(N)N)C(N)=O [WWLWWLR]
MIC [12]: 12.5 µM (≈ 14.3 µg/mL)

Further lines, results first:

MIC [3]: 3.99 µM (≈ 8 µg/mL)
MIC [4]: ≥ 63.8 µM
MIC [5]: 3.99 µM (≈ 8 µg/mL)
SMILES: CC[C@H](C)[C@H](NC(=O)CNC(=O)CNC(=O)[C@H](C)NC(=O)[C@@H](NC(=O)[C@H](CCCCN)NC(=O)[C@@H]1CCCN1C(=O)[C@@H](NC(=O)[C@H](CCSC)NC(=O)[C@H](CO)NC(=O)[C@H](Cc1ccccc1)NC(=O)[C@@H](N)Cc1ccccc1)[C@@H](C)CC)[C@@H](C)CC)C(=O)N[C@@H](C)C(=O)N[C@@H](CO)C(=O)N[C@@H](CC(C)C)C(=O)N[C@H](C(=O)N[C@@H](CCCCN)C(=O)N[C@@H](CC(N)=O)C(=O)N[C@@H](CC(C)C)C(N)=O)C(C)C [FFSMIPKIAGGIASLVKNL]

MIC [6]: > 100 µM
MIC [7]: > 100 µM
MIC [8]: > 100 µM
MIC [9]: > 100 µM
MIC [10]: ≥ 100 µM
MIC [11]: ≥ 100 µM
SMILES: CC[C@H](C)[C@H](NC(=O)[C@H](CC(=O)O)NC(=O)[C@H](CCCCN)NC(=O)[C@H](C)NC(=O)[C@H](C)NC(=O)CNC(=O)[C@H](CCCCN)NC(=O)[C@H](CC(C)C)NC(=O)[C@@H](NC(=O)[C@H](CC(=O)O)NC(=O)[C@@H](NC(=O)[C@H](C)NC(=O)CN)C(C)C)[C@@H](C)CC)C(=O)N[C@@H](C)C(=O)NCC(=O)N[C@@H](Cc1cnc[nH]1)C(=O)N[C@@H](CC(C)C)C(=O)N[C@@H](C)C(=O)N[C@@H](CO)C(=O)N[C@@H](CCCCN)C(=O)N[C@H](C(=O)N[C@@H](CCSC)C(=O)N[C@@H](CC(N)=O)C(=O)N[C@@H](CCCCN)C(=O)N[C@@H](CC(C)C)C(N)=O)C(C)C [GAVDILKGAAKDIAGHLASKVMNKL]

MIC [6]: 12.5 µM (≈ 32.4 µg/mL)
MIC [7]: 50 µM (≈ 130 µg/mL)
MIC [8]: 50 µM (≈ 130 µg/mL)
MIC [9]: 100 µM (≈ 259 µg/mL)
MIC [10]: 25 µM (≈ 64.8 µg/mL)
MIC [11]: ≥ 50 µM
SMILES: CC[C@H](C)[C@H](NC(=O)[C@H](CC(=O)O)NC(=O)[C@H](CCCCN)NC(=O)[C@H](CC(C)C)NC(=O)[C@H](C)NC(=O)CNC(=O)[C@H](CCCCN)NC(=O)[C@H](CC(C)C)NC(=O)[C@@H](NC(=O)[C@H](CC(=O)O)NC(=O)[C@@H](NC(=O)[C@@H](NC(=O)CN)C(C)C)C(C)C)[C@@H](C)CC)C(=O)N[C@@H](C)C(=O)NCC(=O)N[C@@H](Cc1cnc[nH]1)C(=O)N[C@@H](CC(C)C)C(=O)N[C@@H](C)C(=O)N[C@@H](CO)C(=O)N[C@@H](CCCCN)C(=O)N[C@H](C(=O)N[C@@H](CCSC)C(=O)N[C@@H](CC(N)=O)C(=O)N[C@@H](CCCCN)C(=O)N[C@@H](CC(C)C)C(N)=O)C(C)C [GVVDILKGALKDIAGHLASKVMNKL]

MIC [14]: 64 µM (≈ 133 µg/mL)
MIC [6]: 2 µM (≈ 4.15 µg/mL)
MIC [15]: 8 µM (≈ 16.6 µg/mL)
MIC [16]: ≥ 32 µM
MIC [9]: 32 µM (≈ 66.4 µg/mL)
MIC [17]: 32 µM (≈ 66.4 µg/mL)
SMILES: NCCCC[C@H](NC(=O)CNC(=O)[C@H](CC(N)=O)NC(=O)[C@H](CCC(=O)O)NC(=O)[C@H](Cc1c[nH]c2ccccc12)NC(=O)[C@H](CCCCN)NC(=O)[C@H](Cc1c[nH]c2ccccc12)NC(=O)[C@H](CCCCN)NC(=O)[C@@H](N)Cc1c[nH]c2ccccc12)C(=O)N[C@@H](Cc1c[nH]c2ccccc12)C(=O)N[C@@H](CCCCN)C(=O)N[C@@H](Cc1c[nH]c2ccccc12)C(=O)N[C@@H](CCCCN)C(=O)N[C@@H](Cc1c[nH]c2ccccc12)C(=O)O [WKWKWENGKWKWKW]

MIC [14]: > 128 µM
MIC [6]: 32 µM (≈ 99 µg/mL)
MIC [15]: ≥ 128 µM
MIC [16]: ≥ 128 µM
MIC [9]: > 128 µM
MIC [17]: > 128 µM
SMILES: CC[C@H](C)[C@H](NC(=O)[C@H](Cc1ccccc1)NC(=O)[C@H](CS)NC(=O)[C@@H](NC(=O)[C@H](CO)NC(=O)[C@@H](N)Cc1ccc(O)cc1)[C@@H](C)O)C(=O)N[C@@H](CCSC)C(=O)NCC(=O)NCC(=O)NCC(=O)N[C@@H](Cc1c[nH]c2ccccc12)C(=O)N[C@@H](CCCCN)C(=O)N[C@@H](Cc1c[nH]c2ccccc12)C(=O)N[C@@H](CCCCN)C(=O)N[C@@H](Cc1c[nH]c2ccccc12)C(=O)N[C@@H](CCC(=O)O)C(=O)N[C@@H](CC(N)=O)C(=O)NCC(=O)N[C@@H](CCCCN)C(=O)N[C@@H](Cc1c[nH]c2ccccc12)C(=O)N[C@@H](CCCCN)C(=O)N[C@@H](Cc1c[nH]c2ccccc12)C(=O)N[C@@H](CCCCN)C(=O)N[C@@H](Cc1c[nH]c2ccccc12)C(=O)O [YSTCFIMGGGWKWKWENGKWKWKW]
